Assays:
Type in all cases: physicochemical
[1] = Observation of HPPA-Na2 in anhydrous valeraldehyde at room temperature (Comparative Example 1); details: 15 mg in anhydrous valeraldehyde (3.52 g; 0.0961 wt % water), two hours
Experimental: One small portion (15 mg) of a disodium salt of hydroxypentylphosphonic acid (HPPA-Na2) was charged to a 20 ml glass vial under nitrogen. Anhydrous valeraldehyde (3.52 g; 0.0961 wt % water) was added and the resulting mixture was stirred at room temperature.

[2] = HPPA-Na2 solubility in valeraldehyde/valeraldehyde trimers/1-butene at 70° C., filtrate quantified by ion chromatography (Examples 4-6); details: two hours
Experimental: (§1) Valeraldehyde was freshly distilled under reduced pressure prior to use. Valeraldehyde trimers were obtained by vacuum distillation of a commercial catalyst recycle sample. The distillate was determined to be a mixture of 75% valeraldehyde trimers and 25% valeraldehyde dimers by gas chromatography and mass spectrometry (GC/MS). A portion of both valeraldehyde and valeraldehyde trimers was saturated with water, and then blended with freshly distilled material to provide solutions of varying water levels. Unless otherwise noted, all water concentrations were determined by Karl-Fischer titration.
One small portion (130-160 mg) of the disodium salt of hydroxypentylphosphonic acid (HPPA-Na2) was charged to each of three, 3 oz glass pressure vessels. Valeraldehyde, valeraldehyde trimers and 1-butene were then added via syringe and the resulting mixtures (which contained various levels of water) were stirred vigorously at 70° C. for two hours. Samples were then removed at temperature, quickly filtered, and the filtrate was twice extracted with water to facilitate the quantization of HPPA-Na2 solubility by ion chromatography.
The solutions of Examples 4-6 were intended to model actual hydroformylation solution conditions.

[3] = Observation of HPPA-Na2 in valeraldehyde/valeraldehyde trimers (2:1) and 1-butene, stirred at room temperature for two hours (Examples 1-3)
Experimental: as §1
One small portion (70 mg) of a disodium salt of hydroxypentylphosphonic acid (HPPA-Na2) was charged to each of three, 3 oz glass pressure vessels. Valeraldehyde, valeraldehyde trimers (2:1 weight ratio) and 1-butene were then added via syringe and stirred at room temperature for two hours.

[4] = Solubility properties of HPPA-Na2 under simulated hydroformylation reaction conditions with incremental water addition (Example 7)
Experimental: A small portion (67 mg) of the disodium salt of hydroxypentylphosphonic acid (HPPA-Na2) was charged to a 3 oz glass pressure vessel. A 2:1 mixture of valeraldehyde and valeraldehyde trimers (4.07 g) was added, and stirring was initiated at room temperature. Butene-1 (1.22 g) was added via syringe, and the tube was placed in an oil bath at 70° C. Additional water was slowly added to determine solubility properties under simulated hydroformylation reaction conditions. Total water content is based on the initial water level (determined by K—F titration) plus the incremental water additions made throughout.

In the case of `CCCCC(O)P(=O)([O-])[O-].[Na+].[Na+]` (centres unmarked) [HPPA-Na2, disodium salt of hydroxypentylphosphonic acid], the “Appearance of the solids after stirring” value [1] is reported as “the solids remained free-flowing, suspended particulates”, the HPPA-Na2 solubility ([2]; Ex. 4, Val. 52.0 wt %, Val Trimer 26.0 wt %, 1-butene 21.2 wt %, Water 0.103 wt %) is reported as 4.8 ppm and the Description ([2]; Ex. 4, Water 0.103 wt %) is reported as “Hazy watery”. The HPPA-Na2 solubility ([2]; Ex. 5, Val. 52.1 wt %, Val Trimer 26.0 wt %, 1-butene 21.1 wt %, Water 0.380 wt %) was 15.5 ppm, the Description ([2]; Ex. 5, Water 0.380 wt %) was “Very hazy” and the HPPA-Na2 solubility ([2]; Ex. 6, Val. 52.7 wt %, Val Trimer 26.4 wt %, 1-butene 20.8 wt %, Water 0.860 wt %) was 21.3 ppm. For the same molecule, the Description ([2]; Ex. 6, Water 0.860 wt %) was “Solid gel”, the Observations ([3]; Example 1, val/val trimer 8.42 g, 1-butene 2.41 g, Water 0.29 %) was “Voluminous, gelatinous” and the Observations ([3]; Example 2, val/val trimer 8.94 g, 1-butene 2.26 g, Water 0.87 %) was “Mixture of gel and sticky”. For the same molecule, the Observations ([3]; Example 3, val/val trimer 8.97 g, 1-butene 2.22 g, Water 1.47 %) was “Sticky material on glass”, the Result ([4]; 22 ° C., water content 0.86 %, additive 1.22 g 1-butene) was “No change” and the Result ([4]; 22 ° C., water content 0.86 %, additives None) was “Opaque with sticky, gelatinous”. For the same molecule, the Result ([4]; 70 ° C., water content 0.86 %, additives None) was “No change”, the Result ([4]; 70 ° C., water content 3.19 %, additive 0.1 mL water) was “No change” and the Result ([4]; 70 ° C., water content 5.54 %, additive 0.1 mL water) was “Less turbid”. The Result ([4]; 70 ° C., water content 7.72 %, additive 0.1 mL water) was “Much less turbid; solids gone” and the Result ([4]; 70 ° C., water content 9.8 %, additive 0.1 mL water) was “Clear solution”.

From US8884072B2, “Mitigation of fouling in hydroformylation processes by water addition” (Dow Technology Investments LLC, priority 2010, dated 2014)
